Data taken from the CheMixHub viscosity set.

Assay: xn = mol fraction of the nth substance listed

COC(=O)CCCCC(=O)OC + CCC(C)=O
100 kPa
Conditions	viscosity [mPa·s]
308.15 K, x1 = 0.2002	0.5865
318.15 K, x1 = 0.3002	0.6465
323.15 K, x1 = 0.4004	0.7425

C1CCCC1 + CCC(C)O
101 kPa
Conditions	viscosity [mPa·s]
298.15 K, x1 = 0.0967	2.238
298.15 K, x1 = 0.1932	1.702
298.15 K, x1 = 0.2298	1.578
298.15 K, x1 = 0.2524	1.454
298.15 K, x1 = 0.3078	1.253
298.15 K, x1 = 0.3627	1.081
298.15 K, x1 = 0.4215	0.936
298.15 K, x1 = 0.5078	0.7825
298.15 K, x1 = 0.5772	0.6742
298.15 K, x1 = 0.7238	0.5339
298.15 K, x1 = 0.8256	0.4728
298.15 K, x1 = 0.9298	0.4297
308.15 K, x1 = 0.0075	2.095
308.15 K, x1 = 0.047	1.917
308.15 K, x1 = 0.0598	1.7
308.15 K, x1 = 0.0917	1.552
308.15 K, x1 = 0.107	1.509
308.15 K, x1 = 0.2217	1.298
308.15 K, x1 = 0.2626	1.177
308.15 K, x1 = 0.3099	1.049
308.15 K, x1 = 0.3653	0.8998
308.15 K, x1 = 0.4219	0.8068
308.15 K, x1 = 0.496	0.6842
308.15 K, x1 = 0.5716	0.5943
308.15 K, x1 = 0.6554	0.5084
308.15 K, x1 = 0.7457	0.4481
308.15 K, x1 = 0.845	0.4249
308.15 K, x1 = 0.9255	0.3819
308.15 K, x1 = 0.9753	0.3779

CN1CCCC1=O + CCC(C)O
viscosity [mPa·s], 101.3 kPa
Conditions	x2 = 0.1049	x2 = 0.4019	x2 = 0.5003
293.15 K	1.815	–	–
313.15 K	–	1.285	1.285

CCCCC(CC)C(=O)OCC(COC(=O)C(CC)CCCC)(COC(=O)C(CC)CCCC)COC(=O)C(CC)CCCC (stereo not given) + CCCCC(=O)OCC(COC(=O)CCCC)(COC(=O)CCCC)COC(=O)CCCC
Conditions	viscosity [mPa·s]
313.15 K, 100 kPa, x1 = 0.6911	32.3

OCc1ccccc1 + CCCCCC
viscosity [mPa·s], 101.3 kPa
Conditions	303.15 K	313.15 K	323.15 K
x1 = 0.0101	0.303	0.284	0.254
x2 = 0.0312	4.044	3.013	2.36
x2 = 0.0645	3.832	2.754	2.173
x2 = 0.0976	3.35	2.394	1.974
x2 = 0.1313	3.119	2.256	1.79
x2 = 0.1653	2.649	2.004	1.616
x2 = 0.2056	2.328	1.827	1.455
x2 = 0.255	1.972	1.615	1.327
x2 = 0.8792	0.364	0.335	0.307
x2 = 0.955	0.326	0.302	0.268
x2 = 0.9699	0.32	0.3	0.262
x2 = 0.9799	0.312	0.292	0.258

CCCCC(CC)C(=O)OCC(COC(=O)C(CC)CCCC)(COC(=O)C(CC)CCCC)COC(=O)C(CC)CCCC (stereo not given) + CCCCCCC(=O)OCC(COC(=O)CCCCCC)(COC(=O)CCCCCC)COC(=O)CCCCCC
100 kPa, x1 = 0.667
Conditions	viscosity [mPa·s]
303.15 K	51.7
313.15 K	32.6
323.15 K	20.7

CC(C)(C)C1CCCCC1 + CCCCCCCCCCCC
viscosity [mPa·s], 102 kPa
Conditions	x1 = 0.1003	x1 = 0.2004	x1 = 0.3011	x1 = 0.4005	x1 = 0.5001	x1 = 0.601	x1 = 0.7001	x1 = 0.8003	x1 = 0.8991
293.15 K	1.5	1.5	1.5	1.51	1.53	1.54	1.57	1.6	1.64
303.15 K	1.26	1.26	1.27	1.27	1.28	1.3	1.32	1.34	1.38
313.15 K	1.07	1.07	1.08	1.09	1.09	1.11	1.13	1.15	1.17
323.15 K	0.92	0.925	0.933	0.939	0.946	0.958	0.975	0.992	1.01

CC(C)(C)C1CCCCC1 + CCCCCCCCCCCCCCCC
viscosity [mPa·s], 102 kPa
Conditions	x1 = 0.1004	x1 = 0.2003	x1 = 0.3003	x1 = 0.4016	x1 = 0.5003	x1 = 0.6001	x1 = 0.7002	x1 = 0.8001	x1 = 0.8999
293.15 K	3.31	3.13	2.95	2.77	2.59	2.41	2.23	2.05	1.87
303.15 K	2.63	2.51	2.37	2.24	2.1	1.97	1.83	1.7	1.56
313.15 K	2.15	2.05	1.95	1.85	1.75	1.64	1.54	1.43	1.32
323.15 K	1.78	1.71	1.63	1.56	1.48	1.39	1.31	1.22	1.14

C1CCCC1 + CCCCCCCO
101.3 kPa
Conditions	viscosity [mPa·s]
298.15 K, x1 = 0.0352	5.482
298.15 K, x1 = 0.0593	5.221
298.15 K, x1 = 0.0988	4.844
298.15 K, x1 = 0.1481	4.446
298.15 K, x1 = 0.2145	3.924
298.15 K, x1 = 0.2684	3.481
298.15 K, x1 = 0.3065	3.175
298.15 K, x1 = 0.3655	2.729
298.15 K, x1 = 0.4052	2.452
298.15 K, x1 = 0.4333	2.255
298.15 K, x1 = 0.4668	2.039
298.15 K, x1 = 0.4932	1.889
298.15 K, x1 = 0.5131	1.773
298.15 K, x1 = 0.5247	1.71
298.15 K, x1 = 0.5389	1.629
298.15 K, x1 = 0.5545	1.546
298.15 K, x1 = 0.5728	1.45
298.15 K, x1 = 0.5972	1.348
298.15 K, x1 = 0.612	1.272
298.15 K, x1 = 0.6459	1.141
298.15 K, x1 = 0.6823	1.009
298.15 K, x1 = 0.7149	0.909
298.15 K, x1 = 0.7429	0.819
298.15 K, x1 = 0.7801	0.734
298.15 K, x1 = 0.8099	0.672
298.15 K, x1 = 0.8367	0.622
298.15 K, x1 = 0.876	0.559
298.15 K, x1 = 0.9139	0.507
298.15 K, x1 = 0.9562	0.455
298.15 K, x2 = 0.0123	0.422
308.15 K, x1 = 0.0706	3.806
308.15 K, x1 = 0.107	3.567
308.15 K, x1 = 0.2112	2.906
308.15 K, x1 = 0.2927	2.434
308.15 K, x1 = 0.3502	2.124
308.15 K, x1 = 0.3903	1.904
308.15 K, x1 = 0.4235	1.762
308.15 K, x1 = 0.4744	1.536
308.15 K, x1 = 0.5101	1.397
308.15 K, x1 = 0.5124	1.388
308.15 K, x1 = 0.5273	1.333
308.15 K, x1 = 0.5473	1.254
308.15 K, x1 = 0.5733	1.164
308.15 K, x1 = 0.5957	1.094
308.15 K, x1 = 0.6126	1.033
308.15 K, x1 = 0.6337	0.973
308.15 K, x1 = 0.6691	0.873
308.15 K, x1 = 0.6936	0.817
308.15 K, x1 = 0.7266	0.741
308.15 K, x1 = 0.7759	0.645
308.15 K, x1 = 0.8235	0.567
308.15 K, x1 = 0.8612	0.513
308.15 K, x1 = 0.9001	0.465
308.15 K, x1 = 0.9538	0.407
318.15 K, x1 = 0.0663	3.159
318.15 K, x1 = 0.1607	2.659
318.15 K, x1 = 0.2747	2.102
318.15 K, x1 = 0.3487	1.774
318.15 K, x1 = 0.4227	1.477
318.15 K, x1 = 0.4685	1.326
318.15 K, x1 = 0.504	1.204
318.15 K, x1 = 0.5407	1.097
318.15 K, x1 = 0.5754	1.006
318.15 K, x1 = 0.6027	0.936
318.15 K, x1 = 0.6281	0.877
318.15 K, x1 = 0.6529	0.814
318.15 K, x1 = 0.6898	0.743
318.15 K, x1 = 0.7214	0.681
318.15 K, x1 = 0.7581	0.617
318.15 K, x1 = 0.8025	0.549
318.15 K, x1 = 0.8554	0.475
318.15 K, x1 = 0.9198	0.402
318.15 K, x1 = 0.9672	0.359
